According to US11696913B2, “Prolonged ectoparasite-controlling agent for animal” (MITSUI CHEMICALS AGRO, INC., priority 2017, dated 2023):
Read-outs that look alike come from different tables or passages of the source.

Legend:
Spodoptera litura = assay: Insecticidal testing against common cutworm; type: in vivo; conditions: foliar, 144 h, concentration 100 ppm, cabbage leaf dip, second-stage larvae, after 6 days, read-out: pesticidal rate
From the text: Insecticidal Testing Against Common Cutworm (Spodoptera litura)

Dermacentor variabilis [1] = assay: In vitro contact test with adult hard ticks (Dermacentor variabilis); conditions: read-out: acaricidal activity; for pest or weed control at 0.2 µg/cm2, 0.2 µg/cm2: dose 0.2 μg/cm^2, 48 h; for pest or weed control at 1 µg/cm2, 1 µg/cm2: dose 1 μg/cm^2, 48 h
Summary of the method: (§1)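 Adult R. sanguineus, I. ricinus, D. variabilis or A. americanum nymphs exposed in glass vials coated with compound from acetone (900 ppm gives 5 μg/cm^2). Held 48 h at room temperature (R. sanguineus) or 21° C., 85% rel. hum.; then heated at 45-50° C. ≤5 min, motionless or uncoordinated ticks scored dead/moribund.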

Ctenocephalides felis [2] = assay: Ctenocephalides felis in-vitro feeding test with fleas (CTECFE oral); conditions: 48 hours, read-out: insecticidal feeding activity; for pest or weed control at 0.032 ppm: dose 0.032 ppm in citrated cattle blood; for pest or weed control at 0.16 ppm: dose 0.16 ppm in citrated cattle blood; for pest or weed control at 0.8 ppm: dose 0.8 ppm in citrated cattle blood; for pest or weed control at 4 ppm: dose 4 ppm in citrated cattle blood
Summary of the method: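 About 20 unfed adult cat fleas fed through parafilm on citrated cattle blood containing test substance (DMSO solution diluted in blood), held at about 37° C. Kill rate scored after 48 hours, 100% meaning all fleas dead.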

[3] = tested on: Rhipicephalus (Boophilus) microplus; assay: In vitro injection test with Rhipicephalus (Boophilus) microplus (BOOPMI Inj); conditions: 168 h, laid fertile eggs after 7 days, read-out: acaricidal activity; for pest or weed control at 32 ng: dose 0.032 μg/animal injected; for pest or weed control at 0.00016 mg: dose 0.16 μg/animal injected; for pest or weed control at 0.0008 mg: dose 0.8 μg/animal injected
Summary of the method: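 Test substance in DMSO; 1 μl injected into abdomen of each of 5 engorged adult female ticks, then held at 28° C., 85% rel. hum. Activity scored after 7 days from laying of fertile eggs: 100% = no eggs or all infertile, 0% = all eggs fertile.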

Plutella xylostella = assay: Insecticidal testing against diamondback moth; type: in vivo; conditions: foliar, 144 h, concentration 100 ppm, cabbage leaf dip, third-stage larvae, after 6 days, read-out: pesticidal rate
From the text: Insecticidal Testing Against Diamondback Moth (Plutella xylostella)

Ctenocephalides felis [4] = assay: In vitro contact test with fleas; conditions: read-out: insecticidal activity; for pest or weed control at 0.04 µg/cm2, 0.04 µg/cm2: dose 0.04 μg/cm^2, dead or moribund fleas after 48 h; for pest or weed control at 0.2 µg/cm2, 0.2 µg/cm2: dose 0.2 μg/cm^2, dead or moribund fleas after 48 h; for pest or weed control at 1 µg/cm2, 1 µg/cm2: dose 1 μg/cm^2, dead or moribund fleas after 48 h
Summary of the method: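 Adult male and female cat fleas (5-10 per tube) placed in glass tubes coated with compound from acetone solution (900 ppm gives 5 μg/cm^2), kept at room temperature and ambient humidity. After 48 h, motionless or uncoordinated fleas scored dead or moribund; activity expressed as % dead or moribund.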

Laodelphax striatellus = assay: Insecticidal testing against small brown planthopper; type: in vivo; conditions: 144 h, concentration 100 ppm, sprayed rice seedlings, after 6 days, read-out: pesticidal rate
Summary of the method: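 Acetone solution of compound at a set concentration sprayed onto rice seedlings, air-dried, then exposed to 10 planthoppers (one group). Held at 25° C; survival rate recorded after 6 days.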

Rhipicephalus sanguineus = assay: In vitro contact test with adult hard ticks (Rhipicephalus sanguineus); conditions: read-out: acaricidal activity; for pest or weed control at 0.2 µg/cm2, 0.2 µg/cm2: dose 0.2 μg/cm^2, 48 h; for pest or weed control at 1 µg/cm2, 1 µg/cm2: dose 1 μg/cm^2, 48 h
Summary of the method: as §1

Ixodes ricinus = assay: In vitro contact test with adult hard ticks (Ixodes ricinus); conditions: read-out: acaricidal activity; for pest or weed control at 1 µg/cm2, 1 µg/cm2: dose 1 μg/cm^2, 48 h; for pest or weed control at 5 µg/cm2, 5 µg/cm2: dose 5 μg/cm^2, 48 h
Summary of the method: as §1

Dermacentor variabilis [5] = assay: Systemic treatment in-vivo test with American dog tick nymph on rats; conditions: Dermacentor variabilis, ip, intraperitoneal injection, 2 mg/kg
Method: (§2) Systemic Treatment In-Vivo Test with American Dog Tick Nymph and Cat Flea on Rats
(§3) Type of study and overall study design: The method is a randomized non-blinded efficacy study in accordance with European animal welfare requirements. Rats (Rattus norvegicus) were randomized based on pre-treatment flea counts. The efficacy of treatment was determined by comparison of the flea and tick counts of different treatment groups versus the placebo-treated control group. The experimental unit was the individual study animal. Method and route of administration: The compound was applied in a suitable solvent and carrier (more specifically, added to glycerol formal; in case of poorly soluble compounds, a solvent mixture with up to 25% by volume of N-methyl pyrrolidone may be used.) considering the individual body weight as an intraperitoneal injection.
(§4) Experimental infestation: On the day of treatment and weekly thereafter, 30 ticks (D. variabilis nymphs) were released onto the back of each rat, and 30 fleas (C. felis) were released onto the back of each rat 24 h later.
(§5) Tick and Flea counting: Rats were thoroughly examined and ticks and fleas were manually removed 48 h (±4 h) after tick infestation and 24 h after flea infestation. Live fleas and live attached engorged ticks were counted. In non-evident cases, engorgement status was evaluated by squeezing the tick on a filter paper to find traces of blood as sign for engorgement.

Ctenocephalides felis [6] = assay: Systemic treatment in-vivo test with cat flea on rats; conditions: Ctenocephalides felis, ip, intraperitoneal injection, 10 mg/kg
Method: as §2, §3, §4, §5

Amblyomma americanum = assay: In vitro contact test with hard ticks (Amblyomma americanum nymphs); conditions: read-out: acaricidal activity; for pest or weed control at 1 µg/cm2, 1 µg/cm2: dose 1 μg/cm^2, 48 h
Summary of the method: as §1

[7] = SD 2, read-out: Geometric mean percent reduction in live flea (Ctenocephalides felis) counts compared to untreated control rats
[8] = SD 9, read-out: Geometric mean percent reduction in live flea (Ctenocephalides felis) counts compared to untreated control rats
[9] = SD 16, read-out: Geometric mean percent reduction in live flea (Ctenocephalides felis) counts compared to untreated control rats
[10] = SD 23, read-out: Geometric mean percent reduction in live flea (Ctenocephalides felis) counts compared to untreated control rats

| SMILES | pest or weed control at 100 ppm (Spodoptera litura) [%] | pest or weed control at 0.2 µg/cm2, 0.2 µg/cm2 (Dermacentor variabilis [1]) [%] | pest or weed control at 1 µg/cm2, 1 µg/cm2 (Dermacentor variabilis [1]) [%] | pest or weed control at 0.032 ppm (Ctenocephalides felis [2]) [%] | pest or weed control at 0.16 ppm (Ctenocephalides felis [2]) [%] | pest or weed control at 0.8 ppm (Ctenocephalides felis [2]) [%] | pest or weed control at 4 ppm (Ctenocephalides felis [2]) [%] | pest or weed control at 32 ng [3] [%] | pest or weed control at 0.00016 mg [3] [%] | pest or weed control at 0.0008 mg [3] [%] | pest or weed control at 100 ppm (Plutella xylostella) [%] | pest or weed control at 0.04 µg/cm2, 0.04 µg/cm2 (Ctenocephalides felis [4]) [%] | pest or weed control at 0.2 µg/cm2, 0.2 µg/cm2 (Ctenocephalides felis [4]) [%] | pest or weed control at 1 µg/cm2, 1 µg/cm2 (Ctenocephalides felis [4]) [%] | pest or weed control at 100 ppm (Laodelphax striatellus) [%] | pest or weed control at 0.2 µg/cm2, 0.2 µg/cm2 (Rhipicephalus sanguineus) [%] | pest or weed control at 1 µg/cm2, 1 µg/cm2 (Rhipicephalus sanguineus) [%] | pest or weed control at 1 µg/cm2, 1 µg/cm2 (Ixodes ricinus) [%] | pest or weed control at 5 µg/cm2, 5 µg/cm2 (Ixodes ricinus) [%] | inhibition in vivo at 10 mg/kg (Ctenocephalides felis [6]; [7]) [%] | other results |
| --- | --- | --- | --- | --- | --- | --- | --- | --- | --- | --- | --- | --- | --- | --- | --- | --- | --- | --- | --- | --- | --- |
| CN(C(=O)c1ccc(F)cc1)c1cccc(C(=O)Nc2c(I)cc(C(F)(C(F)(F)F)C(F)(F)F)cc2OC(F)F)c1F [Compound 90] | ≥ 70 | 90 | 90 | 95 | 95 | 95 | 95 | 100 | 100 | 100 | ≥ 70 | 95 | 95 | 95 | ≥ 70 | 90 | 90 | 90 | 90 | – | pest or weed control at 6.4 ng ([3]; dose 0.0064 μg/animal injected): 100%; inhibition in vivo at 2 mg/kg (Dermacentor variabilis [5]; SD 2, read-out: Geometric mean percent reduction in live tick (Dermacentor variabilis) counts compared to untreated control rats): 100%; inhibition in vivo at 2 mg/kg (Dermacentor variabilis [5]; SD 9, read-out: Geometric mean percent reduction in live tick (Dermacentor variabilis) counts compared to untreated control rats): 83%; inhibition in vivo at 2 mg/kg (Dermacentor variabilis [5]; SD 16, read-out: Geometric mean percent reduction in live tick (Dermacentor variabilis) counts compared to untreated control rats): 29% |
| CN(C(=O)c1ccc(F)cc1)c1cccc(C(=O)Nc2c(I)cc(C(F)(C(F)(F)F)C(F)(F)F)cc2S(=O)(=O)C(F)(F)F)c1F [Compound 70, 2-fluoro-3-(4-fluoro-N-methylbenzamido)-N-(2-iodo-4-(perfluoropropan-2-yl)-6-((trifluoromethyl)sulfonyl)phenyl)benzamide] | ≥ 70 | – | – | 95 | 95 | 95 | 95 | 100 | 100 | 100 | ≥ 70 | – | 95 | 95 | ≥ 70 | 90 | 90 | – | – | 99 | inhibition in vivo at 10 mg/kg (Ctenocephalides felis [6]; [8]): 100%; inhibition in vivo at 10 mg/kg (Ctenocephalides felis [6]; [9]): 99%; inhibition in vivo at 10 mg/kg (Ctenocephalides felis [6]; [10]): 49%; inhibition in vivo at 10 mg/kg (Ctenocephalides felis [6]; SD 30, read-out: Geometric mean percent reduction in live flea (Ctenocephalides felis) counts compared to untreated control rats): 7% |
| O=C(Nc1cccc(C(=O)Nc2c(I)cc(C(F)(C(F)(F)F)C(F)(F)F)cc2OC(F)F)c1F)c1ccc(F)c(F)c1 [Compound 110] | ≥ 70 | 90 | 90 | 95 | 95 | 95 | 95 | 100 | 100 | 100 | ≥ 70 | – | 95 | 95 | ≥ 70 | 90 | 90 | 90 | 90 | – | pest or weed control at 0.2 µg/cm2, 0.2 µg/cm2 (Ixodes ricinus; dose 0.2 μg/cm^2, 48 h): 90%; pest or weed control at 0.04 µg/cm2, 0.04 µg/cm2 (Amblyomma americanum; dose 0.04 μg/cm^2, 48 h): 90%; pest or weed control at 0.2 µg/cm2, 0.2 µg/cm2 (Amblyomma americanum; dose 0.2 μg/cm^2, 48 h): 90%; pest or weed control at 1 µg/cm2, 1 µg/cm2 (Amblyomma americanum): 90% |
| CN(C(=O)c1ccc(F)cc1)c1cccc(C(=O)Nc2c(Br)cc(C(F)(C(F)(F)F)C(F)(F)C(F)(F)F)cc2C(F)(F)F)c1F (stereo not shown) [Compound 93] | ≥ 70 | 90 | 90 | 95 | 95 | 95 | 95 | 100 | 100 | 100 | ≥ 70 | 95 | 95 | 95 | ≥ 70 | – | – | – | 90 | 100 | inhibition in vivo at 10 mg/kg (Ctenocephalides felis [6]; [8]): 97%; inhibition in vivo at 10 mg/kg (Ctenocephalides felis [6]; [9]): 68%; inhibition in vivo at 10 mg/kg (Ctenocephalides felis [6]; [10]): 14%; pest or weed control at 1 µg/cm2, 1 µg/cm2 (Amblyomma americanum): 90% |
